According to patent EP4813383A1, “USE OF TAFAMIDIS AND PHARMACEUTICALLY ACCEPTABLE SALT THEREOF IN PREVENTION, ALLEVIATION, OR TREATMENT OF DISEASES ASSOCIATED WITH HIF-2a” (Huaya Jiyuan (Shenzhen) Pharmaceutical Co., Ltd., priority 2024, dated 2025):

Experiments:
HIF-2α = biological target: T1, HIF-2α (Homo sapiens, UniProt Q99814); assay: Luciferase reporter gene assay (HRE-driven luciferase in stably transfected 786-O cells); format: cell-based
T1 construct: 786-O is a renal carcinoma cell line that predominantly expresses HIF-2α and lacks functional HIF-1α; endogenous in cells; host or cells: 786-O cells stably carrying an HRE-driven luciferase reporter
T1 sequence (Q99814 whole entry): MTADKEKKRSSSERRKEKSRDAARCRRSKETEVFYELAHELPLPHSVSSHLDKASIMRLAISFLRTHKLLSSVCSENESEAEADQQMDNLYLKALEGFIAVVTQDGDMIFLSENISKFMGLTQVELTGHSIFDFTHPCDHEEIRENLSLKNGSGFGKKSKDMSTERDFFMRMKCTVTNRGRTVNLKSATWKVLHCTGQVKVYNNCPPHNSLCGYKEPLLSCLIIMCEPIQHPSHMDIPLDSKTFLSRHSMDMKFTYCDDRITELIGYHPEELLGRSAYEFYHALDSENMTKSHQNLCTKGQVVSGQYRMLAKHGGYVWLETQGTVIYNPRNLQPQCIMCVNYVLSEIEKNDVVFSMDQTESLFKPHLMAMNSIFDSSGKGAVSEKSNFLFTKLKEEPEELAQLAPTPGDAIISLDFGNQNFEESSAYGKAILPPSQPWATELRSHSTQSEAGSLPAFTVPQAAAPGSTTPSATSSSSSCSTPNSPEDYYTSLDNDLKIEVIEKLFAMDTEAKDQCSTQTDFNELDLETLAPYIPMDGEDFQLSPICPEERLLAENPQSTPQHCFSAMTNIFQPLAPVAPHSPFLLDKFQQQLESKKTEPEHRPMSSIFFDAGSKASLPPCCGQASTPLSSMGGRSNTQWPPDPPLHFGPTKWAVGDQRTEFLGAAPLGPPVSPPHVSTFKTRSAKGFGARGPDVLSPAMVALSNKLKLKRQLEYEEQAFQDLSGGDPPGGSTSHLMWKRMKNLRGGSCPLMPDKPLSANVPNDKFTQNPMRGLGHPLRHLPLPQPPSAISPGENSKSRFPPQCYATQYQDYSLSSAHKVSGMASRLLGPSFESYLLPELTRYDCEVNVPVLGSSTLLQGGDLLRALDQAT
T1 sequence (P27540 whole entry partner): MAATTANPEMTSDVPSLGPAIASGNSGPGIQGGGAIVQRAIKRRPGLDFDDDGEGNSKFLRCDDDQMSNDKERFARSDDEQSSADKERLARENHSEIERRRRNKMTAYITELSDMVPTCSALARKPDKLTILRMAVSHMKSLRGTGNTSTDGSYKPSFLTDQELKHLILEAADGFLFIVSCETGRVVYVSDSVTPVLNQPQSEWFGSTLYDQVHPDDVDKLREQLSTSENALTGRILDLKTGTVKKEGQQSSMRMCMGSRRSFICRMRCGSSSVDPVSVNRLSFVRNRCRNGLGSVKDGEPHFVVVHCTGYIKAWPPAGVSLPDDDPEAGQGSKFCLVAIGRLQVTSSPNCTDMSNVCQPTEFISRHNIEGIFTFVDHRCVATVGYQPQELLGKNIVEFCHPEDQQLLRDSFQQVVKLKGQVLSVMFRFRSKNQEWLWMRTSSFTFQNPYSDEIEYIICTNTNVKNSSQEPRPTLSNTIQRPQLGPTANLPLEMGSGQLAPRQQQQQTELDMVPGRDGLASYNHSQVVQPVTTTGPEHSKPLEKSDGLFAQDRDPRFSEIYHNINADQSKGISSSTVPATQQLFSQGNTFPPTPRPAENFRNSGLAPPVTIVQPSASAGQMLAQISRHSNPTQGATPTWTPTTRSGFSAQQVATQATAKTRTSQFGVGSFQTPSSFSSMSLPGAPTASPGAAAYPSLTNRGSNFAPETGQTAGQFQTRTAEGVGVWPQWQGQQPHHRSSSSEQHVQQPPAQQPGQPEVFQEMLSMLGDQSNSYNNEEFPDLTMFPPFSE
Text: Experimental principles: 786-O is a renal carcinoma cell line that predominantly expresses HIF-2α and lacks functional HIF-1α. This characteristic makes 786-O cells an ideal model for studying HIF-2α transcriptional activity and related signaling pathways. In the luciferase reporter gene assay, a 786-O monoclonal cell line that stably expresses hypoxia response element (HRE)-driven luciferase (Luc) activity is obtained through puromycin selection. The HIF-2α agonist promotes dimerization of HIF-2α and HIF-β, and activates an HRE promoter. By measuring fluorescence intensity, luciferase activity can be determined, thereby assessing the ability of the HIF-2α agonist to promote transcription.
Experimental method: A total of 6000 stably transfected 786-O cells stably containing HRE and Luc sequences are seeded in each well of a 96-well plate, and 100 µL of RPMI-1640 culture medium containing 10% fetal bovine serum is added to each well. After 24 hours, a compound at a corresponding concentration is added to each well. A blank group is set as a control. Only a DMSO solvent is added in the well of the blank group. For initial compound screening, both tafamidis and tafamidis meglumine are tested at two concentrations: 2 µM and 20 µM. For concentration-gradient determination, each concentration is tested in triplicate. After co-incubation for 24 hours, the culture medium is discarded, and 20 µL of firefly luciferase reporter gene cell lysis buffer (RG126M, Beyotime) is added to each well. The 96-well plate is shaken on a microplate shaker for 10 minutes. After shaking, 10 µL of lysate is transferred into a white opaque plate, and then 10 µL of Steady-Lumi™ firefly luciferase assay reagent (RG058S, Beyotime) is added to each well. Finally, luminescence is measured using a microplate reader (Agilent Synergy Neo2). E20 represents the effect of the compound at a 20 µM concentration, and is calculated as: E20 = fluorescence value of the 20 µM well ÷ fluorescence value of the blank control × 100%. E2 represents the effect of the compound at a 2 µM concentration, and is calculated as: E2 = fluorescence value of the 2 µM well ÷ fluorescence value of the blank control × 100%. EC50 is the compound concentration at which the agonistic efficacy is increased by 50% relative to the blank control. The agonistic efficacy of a compound is determined by calculating the concentration (EC50) required to achieve a 50% increase in the fluorescence activity relative to the blank control and a maximum activation percentage (Emax). The maximum activation percentage (Emax) of an agonist refers to a ratio, expressed as a percentage, of the fluorescence value corresponding to the maximal effect (observed maximal response) induced when the agonist concentration reaches receptor-binding saturation in a particular receptor system, to the fluorescence value of the receptor system in the absence of agonist. In this experiment, Vyndaqel is directly used in place of tafamidis meglumine.

[1] = tested on: Cisplatin-induced renal injury and anemia rat model; assay: Cisplatin-induced renal injury and anemia rat model; format: in vivo, Male Sprague-Dawley (SD) rats; conditions: 10 mg/kg daily oral for four weeks, kidney sections
[2] = tested on: aristolochic acid-induced zebrafish model; assay: Aristolochic acid-induced zebrafish model: glomerular filtration (whole-body fluorescence of tracer); format: in vivo, Wild-type AB strain zebrafish; conditions: 1 µM in aqueous solution; normal group 100%, model group 239%
Procedure: Wild-type AB strain zebrafish at 2 days post-fertilization are randomly selected and placed in a 6-well plate, with 30 zebrafish treated in each well (treatment group). Other than the normal control group, all treatment groups are exposed to aristolochic acid in aqueous solution to establish a zebrafish renal anemia model. After treatment at 28 °C for 18 hours, a normal control group and a model control group are set up simultaneously. Tafamidis samples are administered in aqueous solution to the treatment groups separately (at concentrations of 0.1 µM and 1 µM separately). Water is administered to the normal control group and the model control group correspondingly, with a volume of 3 mL per well. After continued treatment at 28 °C for 4 hours, all treatment groups are intravenously injected with a fluorescent tracer (dextran tetramethylrhodamine). After a further 1 day of treatment at 28 °C, 10 zebrafish are randomly selected from each treatment group and photographed under a fluorescence microscope. Data are analyzed and collected using NIS-Elements D 3.20 advanced image processing software, and whole-body fluorescence intensity in the zebrafish is analyzed. Statistical analysis of this indicator is used to evaluate the efficacy of the samples in repairing renal injury. Statistical results are expressed as mean±SE. […]

[3] = tested on: aristolochic acid-induced zebrafish model; assay: Aristolochic acid-induced zebrafish chronic kidney disease model: renal edema incidence; format: in vivo, Wild-type AB strain zebrafish; conditions: 1 µM in aqueous solution, 30 hours; model group 100%
Procedure: Wild-type AB strain zebrafish at 2 days post-fertilization (2 dpf) are randomly selected and placed in a 6-well plate, with 30 zebrafish treated in each well (treatment group). Other than the normal control group, all treatment groups are exposed to aristolochic acid in aqueous solution to establish a zebrafish renal anemia model. After treatment at 28 °C for 18 hours, a normal control group and a model control group are set up simultaneously. Tafamidis samples are administered in aqueous solution to the treatment groups separately (at concentrations of 20 µM, 10 µM, and 1 µM separately, each concentration being tested in triplicate). Water is administered to the normal control group and the model control group correspondingly, with a volume of 3 mL per well.

SMILES: O=C(O)c1ccc2nc(-c3cc(Cl)cc(Cl)c3)oc2c1 [tafamidis, 2-(3,5-dichlorophenyl)-1,3-benzoxazole-6-carboxylic acid]
- agonistic efficacy at a 2 µM concentration (E2) (HIF-2α; 2 µM, 24 hours co-incubation, fluorescence value as % of blank control (DMSO)): 142%
- agonistic efficacy at a 20 µM concentration (E20) (HIF-2α; 20 µM, 24 hours co-incubation, fluorescence value as % of blank control (DMSO)): 207%
- Emax (HIF-2α; 786-0, read-out: Emax (maximum activation percentage), maximal response as % of fluorescence without agonist): 225%
- EC50 (HIF-2α; concentration required for a 50% increase in fluorescence activity relative to the blank control, 24 hours, read-out: EC50): 1110 nM
- α-smooth muscle actin (α-SMA) protein levels, immunohistochemical [1]: significantly reduces
- glomerular filtration rate [2]: 158%
- renal edema incidence [3]: 80%
